Laboratory results taken from PubChem BioAssay AID1919014 (Molecular Pharmacology Branch, DTP, NCI, 2023).

Tested on: NCI-H1341 complex spheroids, percent test/control
Experiment: Anticancer human tumor NCI-H1341 cell line growth inhibition [AhR];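 further: spheroids exposed to agents for seven days before readout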
Details: for IC50: curve of first compound; for viability, T/C: stronger effect = lower value
Outline: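 Agents were dosed in half-log steps down from roughly clinical Cmax, or from 10 microM where Cmax was unknown, alone and with AhR antagonists. Read-out: percent test/control growth of tumor spheroids containing HUVEC and MSC stromal cells.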

[1] = second compound 0.1 µM, first compound 0.000949 µM
[2] = second compound 0.1 µM, first compound 0.003 µM
[3] = second compound 0.1 µM, first compound 0.00949 µM
[4] = second compound 0.1 µM, first compound 0.03 µM
[5] = second compound 0.1 µM, first compound 0.0949 µM
[6] = second compound 0.1 µM, first compound 0.3 µM
[7] = second compound 0.316 µM, first compound 0.000949 µM
[8] = second compound 0.316 µM, first compound 0.003 µM
[9] = second compound 0.316 µM, first compound 0.00949 µM
[10] = second compound 0.316 µM, first compound 0.03 µM
[11] = second compound 0.316 µM, first compound 0.0949 µM
[12] = second compound 0.316 µM, first compound 0.3 µM
[13] = second compound 1 µM, first compound 0.000949 µM
[14] = second compound 1 µM, first compound 0.003 µM
[15] = second compound 1 µM, first compound 0.00949 µM
[16] = second compound 1 µM, first compound 0.03 µM
[17] = second compound 1 µM, first compound 0.0949 µM
[18] = second compound 1 µM, first compound 0.3 µM
[19] = second compound 3.16 µM, first compound 0.000949 µM
[20] = second compound 3.16 µM, first compound 0.003 µM
[21] = second compound 3.16 µM, first compound 0.00949 µM
[22] = second compound 3.16 µM, first compound 0.03 µM
[23] = second compound 3.16 µM, first compound 0.0949 µM
[24] = second compound 3.16 µM, first compound 0.3 µM
[25] = second compound 10 µM, first compound 0.000949 µM
[26] = second compound 10 µM, first compound 0.003 µM
[27] = second compound 10 µM, first compound 0.00949 µM
[28] = second compound 10 µM, first compound 0.03 µM
[29] = second compound 10 µM, first compound 0.0949 µM
[30] = second compound 10 µM, first compound 0.3 µM
[31] = second compound 0.1 µM, first compound 0.0316 µM
[32] = second compound 0.1 µM, first compound 0.1 µM
[33] = second compound 0.1 µM, first compound 0.316 µM
[34] = second compound 0.1 µM, first compound 1 µM
[35] = second compound 0.1 µM, first compound 3.16 µM
[36] = second compound 0.1 µM, first compound 10 µM
[37] = second compound 0.316 µM, first compound 0.0316 µM
[38] = second compound 0.316 µM, first compound 0.1 µM
[39] = second compound 0.316 µM, first compound 0.316 µM
[40] = second compound 0.316 µM, first compound 1 µM
[41] = second compound 0.316 µM, first compound 3.16 µM
[42] = second compound 0.316 µM, first compound 10 µM
[43] = second compound 1 µM, first compound 0.0316 µM
[44] = second compound 1 µM, first compound 0.1 µM
[45] = second compound 1 µM, first compound 0.316 µM
[46] = second compound 1 µM, first compound 1 µM
[47] = second compound 1 µM, first compound 3.16 µM
[48] = second compound 1 µM, first compound 10 µM
[49] = second compound 3.16 µM, first compound 0.0316 µM
[50] = second compound 3.16 µM, first compound 0.1 µM
[51] = second compound 3.16 µM, first compound 0.316 µM
[52] = second compound 3.16 µM, first compound 1 µM
[53] = second compound 3.16 µM, first compound 3.16 µM
[54] = second compound 3.16 µM, first compound 10 µM
[55] = second compound 10 µM, first compound 0.0316 µM
[56] = second compound 10 µM, first compound 0.1 µM
[57] = second compound 10 µM, first compound 0.316 µM
[58] = second compound 10 µM, first compound 1 µM
[59] = second compound 10 µM, first compound 3.16 µM
[60] = second compound 10 µM, first compound 10 µM

## CC(C)CC(NC(=O)C(Cc1ccccc1)NC(=O)c1cnccn1)B(O)O (stereo not given) + Cc1ccccc1N=Nc1ccc(NC(=O)c2ccnn2C)c(C)c1
Second compound 0.1 µM
  IC50: 5.09 nM
Second compound 0.316 µM
  IC50: 5.12 nM
Second compound 1 µM
  IC50: 4.96 nM
Second compound 3.16 µM
  IC50: 4.3 nM
Second compound 10 µM
  IC50: 3.45 nM
[1]
  viability, T/C: 116%
[2]
  viability, T/C: 90.2%
[3]
  viability, T/C: 2.67%
[4]
  viability, T/C: 0.15%
[5]
  viability, T/C: 0.06%
[6]
  viability, T/C: 0.19%
[7]
  viability, T/C: 92.6%
[8]
  viability, T/C: 91.1%
[9]
  viability, T/C: 2.6%
[10]
  viability, T/C: 0.07%
[11]
  viability, T/C: 0.07%
[12]
  viability, T/C: 0.15%
[13]
  viability, T/C: 83%
[14]
  viability, T/C: 89.7%
[15]
  viability, T/C: 3.18%
[16]
  viability, T/C: 0.12%
[17]
  viability, T/C: 0.08%
[18]
  viability, T/C: 0.18%
[19]
  viability, T/C: 85%
[20]
  viability, T/C: 71.6%
[21]
  viability, T/C: 2.5%
[22]
  viability, T/C: 0.06%
[23]
  viability, T/C: 0.09%
[24]
  viability, T/C: 0.2%
[25]
  viability, T/C: 50.5%
[26]
  viability, T/C: 62.5%
[27]
  viability, T/C: 2.63%
[28]
  viability, T/C: 0.39%
[29]
  viability, T/C: 0.18%
[30]
  viability, T/C: 0.31%

## CCc1c2c(nc3ccc(O)cc13)-c1cc3c(c(=O)n1C2)COC(=O)[C@]3(O)CC + Cc1ccccc1N=Nc1ccc(NC(=O)c2ccnn2C)c(C)c1
Second compound 0.1 µM
  IC50: 13.1 nM
Second compound 0.316 µM
  IC50: 25.3 nM
Second compound 1 µM
  IC50: 17.2 nM
Second compound 3.16 µM
  IC50: 11.7 nM
Second compound 10 µM
  IC50: 9.79 nM
[1]
  viability, T/C: 107%
[2]
  viability, T/C: 67.5%
[3]
  viability, T/C: 53.4%
[4]
  viability, T/C: 44.3%
[5]
  viability, T/C: 37%
[6]
  viability, T/C: 15.3%
[7]
  viability, T/C: 92.9%
[8]
  viability, T/C: 84%
[9]
  viability, T/C: 53.2%
[10]
  viability, T/C: 49.5%
[11]
  viability, T/C: 40.1%
[12]
  viability, T/C: 16.5%
[13]
  viability, T/C: 85.5%
[14]
  viability, T/C: 74.9%
[15]
  viability, T/C: 50.3%
[16]
  viability, T/C: 43.5%
[17]
  viability, T/C: 35.5%
[18]
  viability, T/C: 13.5%
[19]
  viability, T/C: 75.7%
[20]
  viability, T/C: 58.2%
[21]
  viability, T/C: 51%
[22]
  viability, T/C: 43.5%
[23]
  viability, T/C: 29.7%
[24]
  viability, T/C: 12.1%
[25]
  viability, T/C: 54.3%
[26]
  viability, T/C: 48.9%
[27]
  viability, T/C: 48.4%
[28]
  viability, T/C: 44.8%
[29]
  viability, T/C: 22.6%
[30]
  viability, T/C: 7.81%

## Nc1ccccc1NC(=O)c1ccc(CNC(=O)OCc2cccnc2)cc1 + Cc1ccccc1N=Nc1ccc(NC(=O)c2ccnn2C)c(C)c1
Second compound 0.1 µM
  IC50: 582 nM
Second compound 0.316 µM
  IC50: 604 nM
Second compound 1 µM
  IC50: 596 nM
Second compound 3.16 µM
  IC50: 647 nM
Second compound 10 µM
  IC50: 380 nM
[31]
  viability, T/C: 91.8%
[32]
  viability, T/C: 84.5%
[33]
  viability, T/C: 65.2%
[34]
  viability, T/C: 37.4%
[35]
  viability, T/C: 9.11%
[36]
  viability, T/C: 0.66%
[37]
  viability, T/C: 89.9%
[38]
  viability, T/C: 88.7%
[39]
  viability, T/C: 70.3%
[40]
  viability, T/C: 33.6%
[41]
  viability, T/C: 9.54%
[42]
  viability, T/C: 1.08%
[43]
  viability, T/C: 120%
[44]
  viability, T/C: 98.6%
[45]
  viability, T/C: 76.3%
[46]
  viability, T/C: 30.1%
[47]
  viability, T/C: 7.04%
[48]
  viability, T/C: 0.78%
[49]
  viability, T/C: 85.9%
[50]
  viability, T/C: 86.7%
[51]
  viability, T/C: 62%
[52]
  viability, T/C: 43.1%
[53]
  viability, T/C: 12.5%
[54]
  viability, T/C: 0.88%
[55]
  viability, T/C: 49.7%
[56]
  viability, T/C: 53.3%
[57]
  viability, T/C: 58.7%
[58]
  viability, T/C: 37.8%
[59]
  viability, T/C: 18.8%
[60]
  viability, T/C: 3.01%

## O=C(c1cc(Cc2n[nH]c(=O)c3ccccc23)ccc1F)N1CCN(C(=O)C2CC2)CC1 + Cc1ccccc1N=Nc1ccc(NC(=O)c2ccnn2C)c(C)c1
Second compound 0.1 µM
  IC50: > 10000 nM
Second compound 0.316 µM
  IC50: > 10000 nM
Second compound 1 µM
  IC50: > 10000 nM
Second compound 3.16 µM
  IC50: > 10000 nM
Second compound 10 µM
  IC50: > 10000 nM
[31]
  viability, T/C: 94%
[32]
  viability, T/C: 83.4%
[33]
  viability, T/C: 93.9%
[34]
  viability, T/C: 86.4%
[35]
  viability, T/C: 104%
[36]
  viability, T/C: 69.4%
[37]
  viability, T/C: 87.4%
[38]
  viability, T/C: 84.5%
[39]
  viability, T/C: 97.4%
[40]
  viability, T/C: 71.2%
[41]
  viability, T/C: 72.8%
[42]
  viability, T/C: 59.1%
[43]
  viability, T/C: 94.2%
[44]
  viability, T/C: 97.8%
[45]
  viability, T/C: 68.8%
[46]
  viability, T/C: 78.3%
[47]
  viability, T/C: 81.2%
[48]
  viability, T/C: 69.1%
[49]
  viability, T/C: 67.6%
[50]
  viability, T/C: 72.1%
[51]
  viability, T/C: 65.7%
[52]
  viability, T/C: 74%
[53]
  viability, T/C: 60.9%
[54]
  viability, T/C: 57.3%
[55]
  viability, T/C: 46.2%
[56]
  viability, T/C: 50.3%
[57]
  viability, T/C: 56.3%
[58]
  viability, T/C: 58.6%
[59]
  viability, T/C: 51.2%
[60]
  viability, T/C: 47.5%
